ChEMBL document CHEMBL1201862, “PubChem BioAssay data set” (2004)
Activity calls are given as the source filed them.

How the values were obtained:
[1] = inhibitors of non-replicating M. tuberculosis, dose response, luciferase, dry powder (AID 651619); assay type: functional; details: Mycobacterium tuberculosis
[2] = inhibitors of non-replicating M. tuberculosis, dose response, luciferase, dry powder (AID 651620); assay type: functional; details: Mycobacterium tuberculosis
[3] = growth inhibition of replicating M. tuberculosis, dose response, counter-screen, dry powder, IC90 (AID 651617); assay type: functional; details: Mycobacterium tuberculosis
[4] = molecular target: T1, Bcl-2-related protein A1 (Mus musculus, UniProt Q07440); assay: Bfl-1 inhibitors blocking BH3 peptide binding, confirmation, biochemical, TR-FRET, mouse Bfl-1 (AID 621);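 further: TR-FRET binding of GST-Bfl-1 to FITC-labelled Bid peptide via terbium antibody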
T1 sequence (Q07440 whole entry): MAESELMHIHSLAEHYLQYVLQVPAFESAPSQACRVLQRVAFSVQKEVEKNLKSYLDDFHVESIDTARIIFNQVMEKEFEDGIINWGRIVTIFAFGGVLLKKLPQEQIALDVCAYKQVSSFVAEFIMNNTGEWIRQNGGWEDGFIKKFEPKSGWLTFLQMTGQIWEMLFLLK

[5] = molecular target: T1, Bcl-2-related protein A1; assay: Bfl-1 binding inhibitors, SAR follow-up, biochemical, fluorescence polarization (AID 1070)
[6] = P. falciparum Dd2 growth inhibitors, dose response, SYBR Green, cherry-picked samples (AID 1159567); assay type: functional, cell-based
[7] = HepG2 cell cytotoxicity, dose response, cytotoxicity control, cherry-picked samples (AID 1159577); assay type: functional, cell-based
[8] = molecular target: Cytochrome P450 2C19 (Homo sapiens, UniProt P33261); assay: Cytochrome panel assay with activity outcomes. Panel member name: p450-cyp2c19 Compounds with AC50 equal or less than 10 uM are considered active; assay type: functional; details: read-out: AC50
Sequence of Cytochrome P450 2C19 (P33261 whole entry): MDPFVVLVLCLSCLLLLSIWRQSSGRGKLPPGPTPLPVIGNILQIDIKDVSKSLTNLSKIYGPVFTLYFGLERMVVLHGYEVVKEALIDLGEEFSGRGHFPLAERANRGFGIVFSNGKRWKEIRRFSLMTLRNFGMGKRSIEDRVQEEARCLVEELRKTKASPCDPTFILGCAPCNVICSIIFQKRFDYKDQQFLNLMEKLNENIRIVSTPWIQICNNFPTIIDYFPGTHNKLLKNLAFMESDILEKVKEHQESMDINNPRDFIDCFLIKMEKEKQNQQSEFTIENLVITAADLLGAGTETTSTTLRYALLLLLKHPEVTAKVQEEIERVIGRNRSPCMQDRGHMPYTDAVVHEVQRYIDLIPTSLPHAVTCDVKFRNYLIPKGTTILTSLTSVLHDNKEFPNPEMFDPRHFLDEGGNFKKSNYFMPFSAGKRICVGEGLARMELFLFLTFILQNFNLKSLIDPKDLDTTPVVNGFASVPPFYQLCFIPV

[9] = molecular target: T2, Caspase-6 (Homo sapiens, UniProt P55212); assay: human caspase-6 inhibitors, dose response, biochemical, VEID-R110 fluorescence, cherry-pick (AID 720632)
T2 sequence (P55212 whole entry): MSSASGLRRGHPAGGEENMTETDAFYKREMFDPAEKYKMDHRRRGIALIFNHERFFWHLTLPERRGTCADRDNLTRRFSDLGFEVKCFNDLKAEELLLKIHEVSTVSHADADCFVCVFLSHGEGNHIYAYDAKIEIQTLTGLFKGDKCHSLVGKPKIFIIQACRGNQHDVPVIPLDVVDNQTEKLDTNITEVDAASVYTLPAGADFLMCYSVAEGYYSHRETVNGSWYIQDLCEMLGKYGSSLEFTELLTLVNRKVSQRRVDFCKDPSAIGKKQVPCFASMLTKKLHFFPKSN

[10] = molecular target: T3, Histone-lysine N-methyltransferase NSD2 (Homo sapiens, UniProt O96028); assay type: biochemical
T3 sequence (O96028 whole entry): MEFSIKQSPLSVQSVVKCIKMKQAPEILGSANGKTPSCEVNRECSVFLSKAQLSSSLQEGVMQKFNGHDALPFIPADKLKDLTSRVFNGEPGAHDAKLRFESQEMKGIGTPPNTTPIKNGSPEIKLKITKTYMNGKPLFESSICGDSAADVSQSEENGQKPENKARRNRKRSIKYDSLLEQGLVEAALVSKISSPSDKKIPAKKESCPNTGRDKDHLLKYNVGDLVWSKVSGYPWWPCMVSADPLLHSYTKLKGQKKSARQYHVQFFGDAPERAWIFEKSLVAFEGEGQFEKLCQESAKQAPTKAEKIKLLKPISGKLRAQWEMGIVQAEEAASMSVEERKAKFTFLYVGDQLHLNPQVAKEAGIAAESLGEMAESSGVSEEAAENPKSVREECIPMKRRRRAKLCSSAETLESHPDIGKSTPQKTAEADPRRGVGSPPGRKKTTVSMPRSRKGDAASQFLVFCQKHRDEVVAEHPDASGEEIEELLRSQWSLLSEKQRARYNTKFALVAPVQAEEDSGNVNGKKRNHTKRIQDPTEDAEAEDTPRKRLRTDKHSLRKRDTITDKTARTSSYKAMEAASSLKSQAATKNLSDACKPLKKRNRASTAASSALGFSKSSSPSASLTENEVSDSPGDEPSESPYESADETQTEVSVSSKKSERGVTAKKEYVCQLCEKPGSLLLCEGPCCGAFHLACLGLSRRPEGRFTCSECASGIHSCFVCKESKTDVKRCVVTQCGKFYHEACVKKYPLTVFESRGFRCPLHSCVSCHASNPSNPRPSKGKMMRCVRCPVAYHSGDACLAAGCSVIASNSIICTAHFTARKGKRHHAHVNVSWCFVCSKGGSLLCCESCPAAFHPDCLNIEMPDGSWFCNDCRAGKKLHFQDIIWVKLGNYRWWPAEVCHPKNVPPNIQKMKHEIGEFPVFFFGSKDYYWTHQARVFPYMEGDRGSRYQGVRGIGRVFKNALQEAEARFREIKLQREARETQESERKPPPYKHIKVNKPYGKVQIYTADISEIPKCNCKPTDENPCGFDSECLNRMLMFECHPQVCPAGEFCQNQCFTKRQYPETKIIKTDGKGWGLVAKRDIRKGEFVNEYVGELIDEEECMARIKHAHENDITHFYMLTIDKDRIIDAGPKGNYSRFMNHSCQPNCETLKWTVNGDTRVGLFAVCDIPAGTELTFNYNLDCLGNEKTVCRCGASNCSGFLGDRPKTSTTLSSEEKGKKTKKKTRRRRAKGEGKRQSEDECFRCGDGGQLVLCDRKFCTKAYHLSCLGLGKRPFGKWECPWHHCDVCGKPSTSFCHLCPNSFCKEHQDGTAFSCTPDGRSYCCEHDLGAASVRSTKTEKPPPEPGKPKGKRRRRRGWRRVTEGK

[11] = molecular target: Cytochrome P450 2C9 (Homo sapiens, UniProt P11712)
Sequence of Cytochrome P450 2C9 (P11712 whole entry): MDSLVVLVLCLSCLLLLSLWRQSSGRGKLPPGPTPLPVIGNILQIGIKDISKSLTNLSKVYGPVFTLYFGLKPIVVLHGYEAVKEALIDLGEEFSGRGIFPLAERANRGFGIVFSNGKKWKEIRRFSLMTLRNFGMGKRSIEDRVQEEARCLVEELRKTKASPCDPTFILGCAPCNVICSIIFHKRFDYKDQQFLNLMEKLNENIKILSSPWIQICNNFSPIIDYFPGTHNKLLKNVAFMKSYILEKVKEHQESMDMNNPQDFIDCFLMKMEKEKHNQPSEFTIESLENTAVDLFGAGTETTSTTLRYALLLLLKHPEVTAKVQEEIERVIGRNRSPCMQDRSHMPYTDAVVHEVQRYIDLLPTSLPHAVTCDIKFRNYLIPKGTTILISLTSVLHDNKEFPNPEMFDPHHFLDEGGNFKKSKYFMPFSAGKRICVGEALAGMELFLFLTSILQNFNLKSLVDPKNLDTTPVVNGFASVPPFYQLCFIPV

[12] = Luminescence-based cell-based high throughput dose response assay to identify activators of the DAF-12 from the parasite S. stercoralis (ssDAF-12).; assay type: functional
[13] = molecular target: T4, Oxysterols receptor LXR-beta (Homo sapiens, UniProt P55055); assay: LXR agonists, Gal4 luciferase reporter, dose response, counter-screen for ssDAF-12 agonist project, cell-based, luminescence, HEK293, S. stercoralis campaign (AID 720737); assay type: functional; details: read-out: IC50 (the source's name)
T4 sequence (P55055 whole entry): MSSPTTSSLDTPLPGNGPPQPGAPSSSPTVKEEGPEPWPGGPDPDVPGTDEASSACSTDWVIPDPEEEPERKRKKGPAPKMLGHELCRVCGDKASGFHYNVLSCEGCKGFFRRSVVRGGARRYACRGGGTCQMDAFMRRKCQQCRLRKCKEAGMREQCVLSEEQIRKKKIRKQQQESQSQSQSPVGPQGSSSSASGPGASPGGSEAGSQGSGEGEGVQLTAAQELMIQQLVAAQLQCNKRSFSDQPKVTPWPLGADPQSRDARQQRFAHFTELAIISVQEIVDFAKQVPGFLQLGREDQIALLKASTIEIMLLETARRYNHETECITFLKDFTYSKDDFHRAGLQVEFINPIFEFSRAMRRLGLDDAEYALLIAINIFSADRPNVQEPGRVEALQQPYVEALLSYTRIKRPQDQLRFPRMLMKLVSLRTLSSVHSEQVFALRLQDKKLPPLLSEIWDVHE

[14] = molecular target: Peroxisome proliferator-activated receptor gamma/Nuclear receptor corepressor 2 (Homo sapiens, UniProt P37231+Q9Y618); assay: Counterscreen for NR2E3 inverse agonists: TR-FRET-based biochemical high throughput dose response assay to identify inverse agonists of the interaction between peroxisome proliferator-activated receptor gamma (PPARg) and nuclear receptor co-repressor 2 (NCOR2).; assay type: functional
Sequence of Peroxisome proliferator-activated receptor gamma/Nuclear receptor corepressor 2 (P37231 whole entry): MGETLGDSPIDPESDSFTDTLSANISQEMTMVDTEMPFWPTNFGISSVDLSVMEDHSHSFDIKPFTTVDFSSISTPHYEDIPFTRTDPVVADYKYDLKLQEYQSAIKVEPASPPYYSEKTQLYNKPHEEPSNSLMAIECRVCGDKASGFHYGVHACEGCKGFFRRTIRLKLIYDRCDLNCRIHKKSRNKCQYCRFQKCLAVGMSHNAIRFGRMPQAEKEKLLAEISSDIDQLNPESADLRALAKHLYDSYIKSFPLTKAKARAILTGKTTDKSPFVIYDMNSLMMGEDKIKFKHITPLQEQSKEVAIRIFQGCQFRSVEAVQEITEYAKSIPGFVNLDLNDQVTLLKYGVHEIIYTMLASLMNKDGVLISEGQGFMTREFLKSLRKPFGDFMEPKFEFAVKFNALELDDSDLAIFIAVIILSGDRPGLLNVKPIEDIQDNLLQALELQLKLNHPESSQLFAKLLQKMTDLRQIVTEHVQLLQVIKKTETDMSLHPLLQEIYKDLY
Sequence of Peroxisome proliferator-activated receptor gamma/Nuclear receptor corepressor 2 (Q9Y618 whole entry): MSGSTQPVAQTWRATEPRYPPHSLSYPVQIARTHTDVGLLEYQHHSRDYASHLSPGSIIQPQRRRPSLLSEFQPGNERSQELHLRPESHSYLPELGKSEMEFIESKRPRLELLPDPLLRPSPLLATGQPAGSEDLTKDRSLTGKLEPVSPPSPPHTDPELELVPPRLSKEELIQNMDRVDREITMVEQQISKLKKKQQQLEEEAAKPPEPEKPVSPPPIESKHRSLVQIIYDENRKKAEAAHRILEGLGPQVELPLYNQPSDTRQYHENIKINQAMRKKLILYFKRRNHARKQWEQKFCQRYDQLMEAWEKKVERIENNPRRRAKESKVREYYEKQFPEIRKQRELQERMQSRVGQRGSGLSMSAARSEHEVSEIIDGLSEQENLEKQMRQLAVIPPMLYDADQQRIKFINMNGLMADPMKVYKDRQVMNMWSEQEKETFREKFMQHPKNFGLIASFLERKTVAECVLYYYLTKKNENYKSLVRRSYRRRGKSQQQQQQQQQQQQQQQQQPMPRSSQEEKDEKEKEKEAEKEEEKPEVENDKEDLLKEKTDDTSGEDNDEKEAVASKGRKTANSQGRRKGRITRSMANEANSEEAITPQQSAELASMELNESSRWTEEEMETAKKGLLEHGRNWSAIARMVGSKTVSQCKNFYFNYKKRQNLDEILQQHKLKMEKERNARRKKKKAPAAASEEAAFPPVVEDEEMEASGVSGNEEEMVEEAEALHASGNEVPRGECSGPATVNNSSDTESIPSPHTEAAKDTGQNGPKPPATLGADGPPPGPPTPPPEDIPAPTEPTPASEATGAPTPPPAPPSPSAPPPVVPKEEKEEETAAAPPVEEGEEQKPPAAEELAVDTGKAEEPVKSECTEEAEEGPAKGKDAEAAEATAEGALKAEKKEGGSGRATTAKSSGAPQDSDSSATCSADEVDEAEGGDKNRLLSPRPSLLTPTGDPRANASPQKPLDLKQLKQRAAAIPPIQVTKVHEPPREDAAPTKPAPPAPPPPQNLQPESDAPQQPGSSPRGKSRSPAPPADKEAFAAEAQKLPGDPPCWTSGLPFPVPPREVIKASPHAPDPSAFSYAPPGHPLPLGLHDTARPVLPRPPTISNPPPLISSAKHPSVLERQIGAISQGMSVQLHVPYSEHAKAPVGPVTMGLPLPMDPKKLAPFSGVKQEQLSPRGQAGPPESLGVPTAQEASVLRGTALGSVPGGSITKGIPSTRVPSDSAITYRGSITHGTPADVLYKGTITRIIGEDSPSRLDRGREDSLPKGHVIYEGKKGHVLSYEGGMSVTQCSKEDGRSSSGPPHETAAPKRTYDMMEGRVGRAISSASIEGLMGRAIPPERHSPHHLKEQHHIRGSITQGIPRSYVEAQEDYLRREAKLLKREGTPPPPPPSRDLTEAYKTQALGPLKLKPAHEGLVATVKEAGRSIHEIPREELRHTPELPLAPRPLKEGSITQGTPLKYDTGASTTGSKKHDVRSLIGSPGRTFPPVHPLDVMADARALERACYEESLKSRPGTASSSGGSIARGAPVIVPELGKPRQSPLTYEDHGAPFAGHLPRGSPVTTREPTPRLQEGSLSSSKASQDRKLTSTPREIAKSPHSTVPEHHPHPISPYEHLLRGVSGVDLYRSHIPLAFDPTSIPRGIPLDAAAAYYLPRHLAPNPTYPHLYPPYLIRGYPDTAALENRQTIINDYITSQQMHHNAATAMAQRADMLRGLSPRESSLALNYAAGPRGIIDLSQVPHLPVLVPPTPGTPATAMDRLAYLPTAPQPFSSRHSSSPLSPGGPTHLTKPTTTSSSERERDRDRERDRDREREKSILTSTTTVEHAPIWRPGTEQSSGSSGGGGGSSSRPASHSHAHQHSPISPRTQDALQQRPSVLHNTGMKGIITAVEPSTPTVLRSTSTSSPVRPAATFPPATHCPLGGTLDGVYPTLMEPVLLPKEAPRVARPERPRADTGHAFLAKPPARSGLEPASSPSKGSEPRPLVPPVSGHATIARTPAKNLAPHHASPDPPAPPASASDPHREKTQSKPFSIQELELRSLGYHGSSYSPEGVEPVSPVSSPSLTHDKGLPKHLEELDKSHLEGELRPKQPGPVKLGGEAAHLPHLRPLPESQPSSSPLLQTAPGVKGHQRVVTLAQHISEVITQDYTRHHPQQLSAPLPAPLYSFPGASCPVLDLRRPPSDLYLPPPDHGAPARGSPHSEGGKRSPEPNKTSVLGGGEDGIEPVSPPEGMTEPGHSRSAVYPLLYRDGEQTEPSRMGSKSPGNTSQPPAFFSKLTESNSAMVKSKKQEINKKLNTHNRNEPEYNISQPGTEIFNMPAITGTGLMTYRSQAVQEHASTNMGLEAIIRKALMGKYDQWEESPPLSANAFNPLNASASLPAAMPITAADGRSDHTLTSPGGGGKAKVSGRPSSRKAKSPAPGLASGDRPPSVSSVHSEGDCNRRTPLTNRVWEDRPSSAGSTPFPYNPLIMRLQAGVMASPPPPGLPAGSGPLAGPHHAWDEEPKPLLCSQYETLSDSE

[15] = molecular target: Photoreceptor-specific nuclear receptor (Homo sapiens, UniProt Q9Y5X4); assay: NR2E3 inverse agonists, dose response, biochemical, TR-FRET (AID 463256); assay type: functional
Sequence of Photoreceptor-specific nuclear receptor (Q9Y5X4 whole entry): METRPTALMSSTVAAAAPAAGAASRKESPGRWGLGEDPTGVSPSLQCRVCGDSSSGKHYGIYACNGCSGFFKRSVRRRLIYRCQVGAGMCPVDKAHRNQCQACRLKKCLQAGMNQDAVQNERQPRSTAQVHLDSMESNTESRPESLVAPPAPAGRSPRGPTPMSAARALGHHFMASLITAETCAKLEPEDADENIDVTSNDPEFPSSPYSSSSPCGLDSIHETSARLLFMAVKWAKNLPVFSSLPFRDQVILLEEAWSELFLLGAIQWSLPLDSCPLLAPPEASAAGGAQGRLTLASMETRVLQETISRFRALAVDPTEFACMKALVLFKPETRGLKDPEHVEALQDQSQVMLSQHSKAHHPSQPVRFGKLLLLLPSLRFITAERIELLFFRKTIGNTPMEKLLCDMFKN

[16] = tested on: INS1; assay: beta cell apoptosis inhibitors, cytokine rescue, dose response, luminescence, retest (AID 449756); assay type: functional, cell-based; details: Rattus norvegicus;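 further: cell death triggered by IL-1 beta plus TNF-alpha plus IFN-gamma mixture; protective hits raise ATP signal compared with cytokine alone wells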
[17] = molecular target: T5, Galanin receptor type 3 (Homo sapiens, UniProt O60755); assay: Fluorescence-based cell-based primary high throughput dose response assay to identify antagonists of the Galanin Receptor 3 (GalR3).; assay type: functional
T5 sequence (O60755 whole entry): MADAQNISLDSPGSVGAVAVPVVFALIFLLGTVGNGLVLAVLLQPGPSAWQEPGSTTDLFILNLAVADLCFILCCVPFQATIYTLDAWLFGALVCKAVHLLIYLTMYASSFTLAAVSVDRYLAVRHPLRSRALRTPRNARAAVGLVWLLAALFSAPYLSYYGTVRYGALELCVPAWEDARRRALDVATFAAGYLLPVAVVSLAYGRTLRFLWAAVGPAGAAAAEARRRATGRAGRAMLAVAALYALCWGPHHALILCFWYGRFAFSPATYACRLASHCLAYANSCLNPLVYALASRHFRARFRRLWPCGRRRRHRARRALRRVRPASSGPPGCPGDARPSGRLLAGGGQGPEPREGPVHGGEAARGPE

[18] = cells; assay type: functional, cell-based; details: HEK-CNG
[19] = molecular target: T6, COUP transcription factor 2 (Homo sapiens, UniProt P24468); assay: Luminescence-based cell-based high throughput dose response assay to identify inhibitors of COUP-TFII (NR2F2).; assay type: functional;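 further: HEK293 cells transiently cotransfected with COUP-TFII expression vector and reporter; luciferase reporter luminescence driven by COUP-TFII from the pX2-168 reporter plasmid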
T6 sequence (P24468 whole entry): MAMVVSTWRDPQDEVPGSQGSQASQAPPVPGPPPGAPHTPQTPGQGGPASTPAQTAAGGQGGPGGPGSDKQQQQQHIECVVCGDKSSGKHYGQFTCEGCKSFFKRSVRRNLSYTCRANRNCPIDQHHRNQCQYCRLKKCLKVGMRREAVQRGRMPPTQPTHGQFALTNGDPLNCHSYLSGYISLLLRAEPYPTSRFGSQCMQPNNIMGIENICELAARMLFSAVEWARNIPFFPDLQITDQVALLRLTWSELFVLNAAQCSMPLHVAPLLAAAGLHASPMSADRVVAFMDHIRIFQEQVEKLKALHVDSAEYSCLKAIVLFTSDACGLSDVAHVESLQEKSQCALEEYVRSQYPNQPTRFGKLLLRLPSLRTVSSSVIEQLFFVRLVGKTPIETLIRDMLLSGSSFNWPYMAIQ

[20] = molecular target: Paired box protein Pax-8 (Homo sapiens, UniProt Q06710); assay: inhibitors of PAX8-driven TPO luciferase reporter, dose response, RMG-I cells, cherry-pick (AID 687027); assay type: functional, cell-based;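 further: luciferase reporter driven by Pax8 target thyroperoxidase promoter measured by SteadyGlo luminescence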
Sequence of Paired box protein Pax-8 (Q06710 whole entry): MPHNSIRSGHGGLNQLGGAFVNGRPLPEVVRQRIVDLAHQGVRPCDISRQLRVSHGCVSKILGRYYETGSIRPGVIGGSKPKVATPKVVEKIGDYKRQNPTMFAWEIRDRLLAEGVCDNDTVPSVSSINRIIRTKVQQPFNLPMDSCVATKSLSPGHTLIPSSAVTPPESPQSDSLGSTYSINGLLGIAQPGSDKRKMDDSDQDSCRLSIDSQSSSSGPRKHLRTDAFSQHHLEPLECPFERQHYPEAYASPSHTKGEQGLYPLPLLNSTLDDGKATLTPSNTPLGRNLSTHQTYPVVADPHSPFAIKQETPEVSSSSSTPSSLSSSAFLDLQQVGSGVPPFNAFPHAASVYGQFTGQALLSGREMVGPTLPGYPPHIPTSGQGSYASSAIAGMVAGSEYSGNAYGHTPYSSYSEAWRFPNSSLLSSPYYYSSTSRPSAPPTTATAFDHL

[21] = IGROV1 ovarian cancer cell cytotoxicity, dose response, PAX8 inhibitor project, plate reader, dry powder samples (AID 743043); assay type: functional, cell-based; details: IGROV-1
[22] = Shn3 3'UTR reporter inhibitors, dose response, cell-based, Clone20 osteoblasts, firefly luciferase, cherry-picked (AID 624132); assay type: functional;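 further: firefly luciferase luminescence from reporter carrying the Shn3 3'UTR in osteoblasts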
[23] = HepG2 cell cytotoxicity, dose response, cytotoxicity control for Shn3 inhibitor project, CellTiter-Glo, cherry-picked (AID 624134); assay type: functional, cell-based
[24] = control 3'UTR Renilla luciferase suppression, dose response, counter-screen for Shn3 inhibitor project, cell-based, Clone20-Shn3RL, cherry-picked (AID 624133); assay type: functional
[25] = P. falciparum 3D7-ScDHODH growth inhibitors, dose response, SYBR Green, dry powder samples (AID 1159570); assay type: functional, cell-based;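 further: parasite growth measured after 72 hours of compound exposure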
[26] = P. falciparum Dd2 growth inhibitors, dose response, SYBR Green, dry powder samples (AID 1159566); assay type: functional, cell-based;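 further: potency for growth inhibition with lower SYBR green DNA signal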
[27] = P. falciparum ATP4 D1247Y mutant growth inhibitors, dose response, NITD609-resistant line, SYBR Green, dry powder (AID 1159571); assay type: functional, cell-based;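 further: parasites synchronized at ring stage by sorbitol before testing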

SMILES: Fc1ccc(CSc2nnc(-c3ccccc3)o2)cc1
- IC90 [1]: 4 µM (active)
- IC90 [2]: 4 µM (active)
- IC90 [3]: 250 µM (active)

SMILES: COc1ccc2nc(O)c(-c3nnn(-c4ccc(Cl)nc4)n3)cc2c1
- IC50 [4]: > 100 µM (not active)
- IC50 [5]: > 100 µM (not active)

SMILES: CCN(C[C@@H]1N[C@@H](CO)[C@H]1c1ccc(-c2ccc(F)cc2)cc1)C(=O)CN(C)C
- AC50 [6]: 2.05 µM (active)
- AC50 [7]: 8.36 µM (active)

SMILES: Cc1ccc(-n2nnc(-c3cccnc3)n2)cc1
- IC50 [4]: > 100 µM (not active)
- IC50 [5]: > 100 µM (not active)

SMILES: Nc1cc(S(=O)(=O)O)cc2ccc(S(=O)(=O)O)cc12
- AC50 [8]: 7.94 µM (inconclusive)
- AC50 [9]: 45.1 µM (active)
- AC50 [10]: > 20 µM (inactive)
- AC50 [11]: 7.94 µM (inconclusive)

SMILES: O=C(O)c1ccccc1SCC(=O)N1CCc2ccccc21
- IC50 [12]: > 67.5 µM (inactive)
- EC50 [13]: > 67.5 µM (inactive)

SMILES: O=C(CSc1nnc(-c2cccs2)n1-c1ccccc1)Nc1ccccc1
- IC50 [14]: 11.8 µM (not active)
- IC50 [15]: 5.52 µM (active)

SMILES: Fc1ccc(-c2cnn3c(-c4cccs4)ccnc23)cc1
- IC50 [12]: > 67.5 µM (inactive)
- EC50 [13]: > 67.5 µM (inactive)

SMILES: COC(=O)C1CCCCN1C(=O)c1cc(COc2cccc3cnccc23)on1 (centres undefined)
- AC50 [16]: 3.68 µM (active)
- IC50 [17]: 1.48 µM (active)
- EC50 [18]: > 29.9 µM (inactive)
- IC50 [19]: 7.34 µM (active)

SMILES: Fc1ccc(-n2nnc(-c3cc4ccccc4nc3Cl)n2)cc1
- IC50 [4]: > 100 µM (not active)
- IC50 [5]: > 100 µM (not active)

SMILES: C[C@H](CO)N1C[C@H](C)[C@@H](CN(C)Cc2ccc(Cl)c(Cl)c2)Oc2ccc(NC(=O)Nc3ccc(C(F)(F)F)cc3)cc2CC1=O
- AC50 [20]: 6.35 µM (active)
- AC50 [21]: 54.3 µM (active)
- AC50 [6]: 2.62 µM (active)
- AC50 [7]: 11.8 µM (active)

SMILES: COc1cc2c(cc1OC)C1C(=O)c3ccc4c(c3OC1CO2)CC(C(C)C)O4 (centres undefined)
- AC50 [22]: < 0.26 µM (active)
- AC50 [23]: 0.614 µM (active)
- AC50 [24]: 5.08 µM (active)
- IC50 [17]: 0.0386 µM (active)
- EC50 [18]: > 29.9 µM (inactive)
- IC50 [19]: 0.519 µM (active)

SMILES: C/C=C/c1ccc2c(c1)[C@H]1[C@H](CCN1C(=O)c1ccc(F)cc1)[C@H](CO)N2
- AC50 [25]: 1.96 µM (active)
- AC50 [6]: 2.79 µM (active)
- AC50 [26]: 2.01 µM (active)
- AC50 [27]: 2 µM (active)
